Assay results published in US20050043341A1, “3-'Hydroxy-(-4-trifluoromethylphenyl)-methyl-7-spirocyclobutyl-5,6,7 8-tetrahydroquinolin-5-ol derivatives and the use of the same as cholesterol ester transfer protein (cetp) inhibitors” (priority 2001, published 2005).

Legend:
CETP = target: T1, CETP (Homo sapiens, UniProt P11597); test: CETP fluorescence test; format: biochemical; conditions: CETP from human plasma, 37° C., 4 hours; read-out: IC50 (nM) Fluor. test
T1 construct: CETP is obtained in partially purified form from human plasma; from tissue; host or cells: human plasma
T1 sequence (P11597 18-493): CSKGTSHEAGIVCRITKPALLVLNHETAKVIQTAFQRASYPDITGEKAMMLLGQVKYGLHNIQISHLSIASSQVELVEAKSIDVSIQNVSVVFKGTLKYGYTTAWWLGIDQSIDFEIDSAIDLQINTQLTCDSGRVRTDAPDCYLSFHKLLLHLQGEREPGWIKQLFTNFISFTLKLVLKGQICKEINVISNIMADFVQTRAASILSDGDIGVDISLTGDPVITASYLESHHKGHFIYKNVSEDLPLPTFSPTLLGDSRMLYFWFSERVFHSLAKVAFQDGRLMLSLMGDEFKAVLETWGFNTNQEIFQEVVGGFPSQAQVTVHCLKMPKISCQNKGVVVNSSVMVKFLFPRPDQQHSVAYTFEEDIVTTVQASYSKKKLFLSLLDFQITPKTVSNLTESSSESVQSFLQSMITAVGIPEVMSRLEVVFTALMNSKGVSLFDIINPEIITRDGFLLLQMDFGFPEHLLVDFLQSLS
Procedure: CETP is obtained in partially purified form from human plasma by differential centrifugation and column chromatography and used for the test. To this end, human plasma is adjusted to a density of 1.21 g per ml using NaBr and centrifuged at 4° C. at 50000 rpm for 18 h. The bottom fraction (d>1.21 g/ml) is applied to a Sephadex® Phenyl-Sepharose 4B (Pharmacia) column, washed with 0.15 M NaCl/0.001 M tris HCl pH 7.4 and then eluted with dist. water. Die CETP-active fractions are pooled, dialysed against 50 mM Na acetate pH 4.5 and applied to a CM-Sepharose® (Pharmacia) column. The mixture is then eluted using a linear gradient (0-1 M NaCl). The pooled CETP fractions are dialysed against 10 mM TrisHCl pH 7.4 and then further purified by chromatography on a Mono Q® column (Pharmacia).
Measurement of the CETP-catalysed transfer of a fluorescent cholesterol ester between liposomes—modified according to the procedure of Bisgaier et al., J. Lipid Res. 34, 1625 (1993).
For the production of the donor liposomes, 1 mg of cholesteryl 4,4-difluoro-5,7-dimethyl-4-bora-3a,4a-diaza-s-indacene-3-dodecanoate (cholesteryl BODIPY® FL C12, Molecular Probes) is dissolved in 600 μl of dioxane with 5.35 mg of triolein and 6.67 mg of phosphatidylcholine with gentle warming in an ultrasonic bath and this solution is added very slowly with ultrasonication to 63 ml of 50 mM tris/HCl, 150 mM NaCl, 2 mM EDTA buffer pH 7.3 at RT.
The suspension is then ultrasonicated under an N2 atmosphere for 30 minutes in the Braukson ultrasonic bath at about 50 watts, the temperature being kept at about 20° C.
The acceptor liposomes are obtained analogously from 86 mg of cholesteryl oleate, 20 mg of triolein and 100 mg of phosphatidylcholine dissolved in 1.2 ml of dioxane and 114 ml of above buffer by ultrasonication at 50 watts (20° C.) for 30 minutes.
For testing, a test mix consisting of 1 part of above buffer, 1 part of donor liposomes and 2 parts of acceptor liposomes is used.
80 μl of test mix are treated with 1-3 μg of enriched CETP fraction, obtained from human plasma by means of hydrophobic chromatography, and 2 μl of the substance to be investigated in DMSO and incubated at 37° C. for 4 hours.
The change in the fluorescence at 485/535 nm is a measure of the CE transfer; the inhibition of the transfer in comparison to the control batch without substance is determined.

transgenic hCETP mice = test: In vivo activity in transgenic hCETP mice (HDL); conditions: stomach tube
Procedure: In experiments for the determination of the oral action on lipoproteins and triglycerides, test substance is administered to transgenic mice using a stomach tube (Dinchuck, Hart, Gonzalez, Karmann, Schmidt, Wirak; BBA (1995), 1295, 301). Before the start of the experiment, blood is taken from the mice retroorbitally in order to determine cholesterol and triglycerides in the serum. The serum is obtained as described above for hamsters by incubation at 4° C. overnight and subsequent centrifugation at 6000×g. […] The change in the parameters measured is expressed as the percentage change compared with the starting value.

Syrian golden hamsters = test: In vivo activity in Syrian golden hamsters (HDL cholesterol); conditions: perorally
Procedure: In experiments for the determination of the oral action on lipoproteins and triglycerides, test substance dissolved in DMSO and 0.5% suspended in Tylose are administered perorally by means of a stomach tube to Syrian golden hamsters bred in-house. For the determination of the CETP activity, before the start of the experiment blood is taken by retro-orbital puncture (about 250 μl). The test substances are then administered perorally by means of a stomach tube. The control animals receive identical volumes of solvent without test substance. The feed is then withdrawn from the animals and blood is taken at various times—up to 24 hours after substance administration—by puncture of the retroorbital venous plexus.
Clotting is terminated by incubation at 4° C. overnight, then centrifugation is carried out for 10 minutes at 6000×g. The content of cholesterol and triglycerides in the serum thus obtained is determined with the aid of modified commercially obtainable enzymatic tests (Ecoline 25 Cholesterol 1.14830.0001 Merck Diagnostica, Ecoline 25 Triglycerides 1.14856.0001 Merck Diagnostica). Serum is suitably diluted using physiological saline solution.
10 μl of serum dilution are treated with 200 μl of Ecoline 25 reagent in 96-hole plates and incubated for 10 minutes at room temperature. The optical density is then determined at a wavelength of 490 nm using an automatic plate reader. The triglyceride or cholesterol concentration contained in the samples is determined with the aid of a standard curve measured in parallel.
The determination of the content of HDL cholesterol is carried out after precipitation of the ApoB-containing lipoproteins (Sigma 352-4 HDL cholesterol reagent) according to the manufacturer's instructions.

IC50 (CETP) [nM] | Structure (SMILES) | % HDL increase after 4 d (Dose: 4 × 10 mg/kg) (transgenic hCETP mice) [%] | % HDL increase after 24 h (Dose: 2 × 10 mg/kg) (Syrian golden hamsters) [%]
12 | CC(C)c1nc2c(c(-c3ccc(F)cc3)c1[C@@H](O)c1ccc(C(F)(F)F)cc1)[C@@H](O)CC1(CCC1)C2 [Example 51, (5S)-2-Isopropyl-4-(4-fluorophenyl)-3-[(S)-hydroxy-(4-trifluoromethylphenyl)-methyl]-7-spirocyclobutyl-5,6,7,8-tetrahydroquinolin-5-ol] | 57 | 17
30 | CC(C)c1nc2c(c(-c3ccccc3)c1[C@@H](O)c1ccc(C(F)(F)F)cc1)[C@@H](O)CC1(CCC1)C2 [Example 53, (5S)-2-Isopropyl-4-phenyl-3-[(S)-hydroxy-(4-trifluoromethylphenyl)-methyl]-7-spirocyclobutyl-5,6,7,8-tetrahydroquinolin-5-ol] |  | 19
30 | CC(C)c1nc2c(c(-c3cccs3)c1[C@@H](O)c1ccc(C(F)(F)F)cc1)[C@@H](O)CC1(CCC1)C2 [Example 61, (5S)-2-Isopropyl-4-(2-thienyl)-3-[(S)-hydroxy-(4-trifluoromethylphenyl)-methyl]-7-spirocyclobutyl-5,6,7,8-tetrahydroquinolin-5-ol] |  | 
